Results as given in paper PMC8145938, “Triphenilphosphonium Analogs of Chloramphenicol as Dual-Acting Antimicrobial and Antiproliferating Agents” (Antibiotics, 2021).

What was measured:
[1] = tested on: B. subtilis cells; assay: membrane potential by DiS-C3-(5) fluorescence; format: cell-based, Bacillus subtilis
From the text: Thus, we further examined the effect of CAM-Cn-TPP on the bacterial membrane potential of B. subtilis. In particular, the membrane potential of B. subtilis can be estimated from the fluorescence of the potential-sensitive dye, DiS-C3-(5), by measuring the changing fluorescence. The potential-dependent accumulation of the dye inside the bacterial cell causes quenching and leads to a decrease in fluorescence. Under the influence of substances that reduce the membrane potential, the dye is released and the fluorescence increases. […] Therefore, the action of CAM-Cn-TPP may have a double effect on bacterial cells and be based on the depolarization of the bacterial membrane by analogy with the mechanism of action of Cn-TPP [17].
The membrane potential of B. subtilis was estimated by measuring the fluorescence of the potential-dependent probe, DiS-C3-(5). B. subtilis from the overnight culture were seeded into a fresh LB medium, followed by growth for […], until reaching the optical density of 0.8 at 600 nm. Then, the bacteria were diluted 20-fold in a buffer containing 100 mM of KCl and 10 mM of Tris, pH 7.4. The fluorescence was measured at 670 nm (excitation at 630 nm) using a Fluorat-02-Panorama fluorimeter.

[2] = tested on: MDA-MB-231 and BT-549 TNBC-sensitive and chemoresistant cells; assay: cancer cell proliferation / viability assay (MTT); format: cell-based; conditions: 3 days treatment
From the text: We recently provided in vivo [67] and in vitro [68] evidence that certain bactericidal antibiotics suppress tumor growth by inducing mitochondrial dysfunction. […] These cells differ from the corresponding parental cells and display a different response to the same microenvironmental stimuli, allowing them to reduce their proliferating rate and survive chemotherapeutic treatment. Here, we tested the abovementioned CAM-TPP derivatives on chemoresistant triple negative breast cancer (TNBC) cell models, as well as on corresponding CSC-like spheroid cells. We created several relevant models based on TNBC cell lines, particularly MDA-MB-231 and BT-549, to determine their resistance to cyclophosphamide. To create CSC-like cells, parental cells were resuspended in nonadherent conditions to form tumorspheres.
The MDA-MB-231 (RRID: CVCL_0062) and BT-549 (RRID: CVCL_1092) cell lines were purchased from ATCC and cultured in DMEM/F12 (Gibco, Life Technologies, 31330-038) supplemented with 10% FBS, 1% Pen-Strep, 1% Sodium Pyruvate, and 1% L-glutamine. Chemoresistant cell lines were established with continuous treatment for 6 months with the anticancer therapeutic agent, cyclophosphamide (Rcyclo), as previously described. These cell lines were authenticated using short tandem repeat (STR) profiling within the last three years. […] The relative numbers of tumourspheres per well were counted manually. […]
The survival assay was performed essentially as described earlier. […] The absorbance was measured at 570 nm in Bio Spec 1601, Shimadzu spectrometer. […] The results were expressed as the means ± SEM. The data were analyzed using the GraphPad Prism 7 PRIZM computer software under the license of the Statistical Department (Vall’ d Hebron Hospital, Barcelona, Spain).

[3] = tested on: CSC-like TNBC cells (MDA-MB-231 and BT-549, sensitive and chemoresistant); assay: tumoursphere formation and viability of CSC-like cells; format: cell-based; conditions: for survival of CSCs: CSCs from parental and resistant TNBC cell lines; for spheroid formation: non-adherent conditions, 5 days
From the text: Several TPP-containing compounds have been proposed for the elimination of CSCs by the Lisanti group. In the current work, we studied the effect of CAM-TPP derivatives on CSC-like TNBC cell models.
The MDA-MB-231 (RRID: CVCL_0062) and BT-549 (RRID: CVCL_1092) cell lines were purchased from ATCC and cultured in DMEM/F12 (Gibco, Life Technologies, 31330-038) supplemented with 10% FBS, 1% Pen-Strep, 1% Sodium Pyruvate, and 1% L-glutamine. Chemoresistant cell lines were established with continuous treatment for 6 months with the anticancer therapeutic agent, cyclophosphamide (Rcyclo), as previously described. These cell lines were authenticated using short tandem repeat (STR) profiling within the last three years. To obtain CSC-like cells, a single cell suspension was prepared using enzymatic disaggregation (1× Trypsin-EDTA, Gibco, 25300062), and the cells were plated at a density of 10.000–12.000 cells per ml in a Cancer Stem Cell medium (C-28070, PromoCell, Heidelberg, Germany) in poly-2-hydroxyethyl methacrylate (Poly-HEMA, Santa Cruz Biotechnology, Dallas, TX, USA, sc-253284)-coated plates. […] The cells were […] with corresponding compounds or DMSO (control), followed by the abovementioned procedure of tumoursphere formation. The relative numbers of tumourspheres per well were counted manually. The experiments were performed independently at least 2 times, with several replicates.
(§1) The survival assay was performed essentially as described earlier. In short, cells were seeded into a 96-well plate, followed by treatment with increasing concentrations of the corresponding CAM-TPP derivatives for 3 days. 3-(4,5-dimethylthiazol-2-yl)-2,5-diphenyltetrazolium bromide (0.5 mg/mL MTT; Sigma-Aldrich) dissolved in media was added to each well. Following incubation for 2 h, the supernatant was carefully removed from the wells, and 100 µL of a DMSO:ethanol mix (1:1) was added to each well, followed by shaking for 10 min. The absorbance was measured at 570 nm in Bio Spec 1601, Shimadzu spectrometer. The OD570 of the DMSO solution in each well was considered to be proportional to the number of cells. The OD570 of the control (treatment without supplement) was considered to be 100%. The results were expressed as the means ± SEM. The data were analyzed using the GraphPad Prism 7 PRIZM computer software under the license of the Statistical Department (Vall’ d Hebron Hospital, Barcelona, Spain).

[4] = tested on: normal human fibroblasts; assay: cell viability of normal cells; format: cell-based; conditions: submicromolar concentrations, preliminary results
Description: We also compared the effects of the obtained compounds on the suppression of normal cell growth.
as §1

Structure (SMILES)	effect on membrane potential ([1]; 10 µM)	effect on membrane potential ([1]; submicromolar concentrations)	effect on proliferation of TNBC cell lines [2]	survival of CSCs [3]	spheroid formation [3]	effect on normal cell growth compared with cancer cells [4]
O=C(CCCCCCCCCC[P+](c1ccccc1)(c1ccccc1)c1ccccc1)N[C@H](CO)[C@H](O)c1ccc([N+](=O)[O-])cc1 [CAM-C10-TPP, (N-{[(1R,2R)-1,3-dihydroxy-1-(4-nitrophenyl)propan-2-yl]amino}-11-oxoundecyl)(triphenyl)phosphonium bromide]	caused a rapid drop in the membrane potential to the level observed with the channel-forming antibiotic gramicidin A	caused a decrease in the membrane potential of B. subtilis on a minute time scale	significantly reduced the proliferation of TNBC cell lines	reduced the survival of CSCs formed from parental and resistant TNBC cell lines	significant decrease in spheroid formation	less affected by submicromolar concentrations of CAM-TPP derivatives than cancer cells
O=C(CCCCCCCCCC[P+](c1ccccc1)(c1ccccc1)c1ccccc1)NCCCC(=O)N[C@H](CO)[C@H](O)c1ccc([N+](=O)[O-])cc1 [CAM-C14-TPP, N-[(1R,2R)-1,3-dihydroxy-1-(4-nitrophenyl)propan-2-yl]-4-(triphenyl)phosphoniumundecanamidobutamide bromide]	caused a rapid drop in the membrane potential to the level observed with the channel-forming antibiotic gramicidin A	caused a decrease in the membrane potential of B. subtilis on a minute time scale	significantly reduced the proliferation of TNBC cell lines	reduced the survival of CSCs formed from parental and resistant TNBC cell lines	significant decrease in spheroid formation	
